This is an account of results in patent US8263606B2 (Xenon Pharmaceuticals Inc., priority 2008, dated 2012).

Usually IC50 stands for the midpoint of a concentration-inhibition curve. As a reminder, the inhibition is the share of the control response that was lost under treatment. The term melting point denotes the temperature of the solid-liquid transition.

One data set relates to sodium channel. Description: Guanidine influx assay (14C-guanidine radiotracer flux, in vitro). Type of data set: cell-based, human or rat. The conditions noted are these: guanidine influx assay using a known cell line that expresses a sodium channel; activity level class. Summed up:
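Aconitine holds channels open while 14C-guanidine enters human or rat sodium-channel-expressing cells in choline-substituted low-sodium saline, with test agent present at ambient temperature. Retained tracer is scintillation-counted and IC50 fitted by a four-parameter logistic model.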

In another data set the target is CYP3A4 (Homo sapiens, UniProt P08684). Kind of data set: Cytochrome P450 (CYP450) Inhibition Assay, CYP3A4 (Vivid fluorescence, BOMCC substrate). Particulars: human, P450 Baculosomes (recombinant CYP3A4), probe BOMCC (Vivid substrate).
Chain of CYP3A4 (P08684 whole entry): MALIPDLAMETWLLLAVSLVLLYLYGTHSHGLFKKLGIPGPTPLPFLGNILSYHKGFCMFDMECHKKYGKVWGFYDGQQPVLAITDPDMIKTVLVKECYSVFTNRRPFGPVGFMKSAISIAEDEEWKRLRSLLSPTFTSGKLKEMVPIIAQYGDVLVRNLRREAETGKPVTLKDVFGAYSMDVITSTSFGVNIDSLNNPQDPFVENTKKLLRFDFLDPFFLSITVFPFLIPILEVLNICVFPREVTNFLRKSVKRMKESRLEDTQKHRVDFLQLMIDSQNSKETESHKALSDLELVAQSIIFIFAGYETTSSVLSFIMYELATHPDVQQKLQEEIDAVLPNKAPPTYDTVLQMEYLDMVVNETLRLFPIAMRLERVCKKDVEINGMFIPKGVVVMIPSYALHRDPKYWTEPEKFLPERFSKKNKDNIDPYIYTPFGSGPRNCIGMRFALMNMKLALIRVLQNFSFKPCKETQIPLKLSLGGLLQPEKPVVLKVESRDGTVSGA

`O=C1N(Cc2ccc(F)cn2)c2ccccc2[C@]12COc1cc3c(cc12)OCCO3` [Example 4.107, (8S)-1′-[(5-fluoropyridin-2-yl)methyl]-2,3-dihydrospiro[furo[2,3-g][1,4]benzodioxine-8,3′-indol]-2′(1′H)-one]: the melting point is 210 to 212 °C. In addition, the IC50 in the data set with sodium channel fell in the range of 1 to 100 nM. The inhibition at 10 µM at CYP3A4 is < 50%.

The compound `O=C1N(Cc2ncccc2F)c2ccccc2[C@]12COc1cc3c(cc12)OCCO3` [Example 4.108, (8S)-1′-[(3-fluoropyridin-2-yl)methyl]-2,3-dihydrospiro[furo[2,3-g][1,4]benzodioxine-8,3′-indol]-2′(1′H)-one] registered a melting point of 125 to 126 °C. Moreover, the IC50 with sodium channel lay within 1 to 100 nM. Further, on CYP3A4, the inhibition at 10 µM was < 50%.

As to `O=C1N(Cc2cc(F)ccn2)c2ccccc2C12COc1cc3c(cc12)OCCO3` (stereo not drawn) [Example 4.110, 1-[(4-fluoropyridin-2-yl)methyl]-2,3-dihydrospiro[furo[2,3-g][1,4]benzodioxine-8,3′-indol]-2′(1′H)-one], the melting point fell in the range of 228 to 231 °C. For the same compound, the IC50 with sodium channel is 1 to 100 nM. At CYP3A4, the inhibition at 10 µM is < 50%.

Compound `O=C1N(Cc2ccccc2C(F)(F)F)c2ccccc2C12COc1cc3c(cc12)OCCO3` (stereo not drawn) [Example 4.113, 1′-[2-(trifluoromethyl)benzyl]-2,3-dihydrospiro[furo[2,3-g][1,4]benzodioxine-8,3′-indol]-2′(1′H)-one] gave a melting point of 207 to 208 °C. In addition, in the data set on sodium channel, the IC50 fell in the range of 1 to 100 nM. On CYP3A4, the inhibition at 10 µM is < 50%.

`O=C1N(Cc2ccccc2C(F)(F)F)c2ccccc2[C@@]12COc1cc3c(cc12)OCCO3` [Example 4.114, (8R)-1′-[2-(trifluoromethyl)benzyl]-2,3-dihydrospiro[furo[2,3-g][1,4]benzodioxine-8,3′-indol]-2′(1′H)-one]: the melting point was in the range of 137 to 138 °C. In the data set with sodium channel, the IC50 is 100 to 1000 nM. Further, the inhibition at 10 µM at CYP3A4 is < 50%.

Turning to `O=C1N(Cc2ccccc2C(F)(F)F)c2ccccc2[C@]12COc1cc3c(cc12)OCCO3` [Example 4.116, (8S)-1′-[2-(trifluoromethyl)benzyl]-2,3-dihydrospiro[furo[2,3-g][1,4]benzodioxine-8,3′-indol]-2′(1′H)-one], the melting point was 137 to 138 °C. For the same compound, in the data set on sodium channel, the IC50 lay within 1 to 100 nM. The inhibition at 10 µM at CYP3A4 is < 50%.

The compound `O=C1N(Cc2ccc3nsnc3c2)c2ccccc2C12COc1cc3c(cc12)OCCO3` (stereo not drawn) [Example 4.118, 1′-(2,1,3-benzothiadiazol-5-ylmethyl)-2,3-dihydrospiro[furo[2,3-g][1,4]benzodioxine-8,3′-indol]-2′(1′H)-one] yielded a melting point of 189 to 191 °C. Besides, the IC50 in the data set with sodium channel fell in the range of 1 to 100 nM. In addition, the inhibition at 10 µM on CYP3A4 was > 50%.

`O=C1N(Cc2nc3ccccc3s2)c2ccccc2C12COc1cc3c(cc12)OCCO3` (stereo not drawn) [Example 4.119, 1-(1,3-benzothiazol-2-ylmethyl)-2,3-dihydrospiro[furo[2,3-g][1,4]benzodioxine-8,3′-indol]-2′(1′H)-one] had a melting point of 164 to 166 °C. The IC50 with sodium channel was 1 to 100 nM. Further, the inhibition at 10 µM at CYP3A4 was > 50%.

Take `Cn1c(CN2C(=O)C3(COc4cc5c(cc43)OCCO5)c3ccccc32)nc2ccccc21` (stereo not drawn) [Example 4.120, 1′-[(1-methyl-1H-benzimidazol-2-yl)methyl]-2,3-dihydrospiro[furo[2,3-g][1,4]benzodioxine-8,3′-indol]-2′(1′H)-one]: the melting point was > 240 °C. Besides, the IC50 in the data set on sodium channel is 1 to 100 nM. Besides, the inhibition at 10 µM at CYP3A4 was > 50%.

The compound `CC(C)c1nc(CN2C(=O)C3(COc4cc5c(cc43)OCCO5)c3ccccc32)cs1` (stereo not drawn) [Example 4.121, 1′-{[2-(1-methylethyl)-1,3-thiazol-4-yl]methyl}-2,3-dihydrospiro[furo[2,3-g][1,4]benzodioxine-8,3′-indol]-2′(1′H)-one] yielded a melting point of 60 to 63 °C. Besides, the IC50 with sodium channel lay within 1 to 100 nM. At CYP3A4, the inhibition at 10 µM is > 50%.

Compound `O=C1N(Cc2ccc3nonc3c2)c2ccccc2C12COc1cc3c(cc12)OCCO3` (stereo not drawn) [Example 4.122, 1-(2,1,3-benzoxadiazol-5-ylmethyl)-2,3-dihydrospiro[furo[2,3-g][1,4]benzodioxine-8,3′-indol]-2′(1′H)-one] showed a melting point of 164 to 166 °C. The IC50 with sodium channel lay in the range of 1 to 100 nM. Also, the inhibition at 10 µM at CYP3A4 was > 50%.

For `O=C1N(Cc2ccccn2)c2ccccc2C12COc1ccc3nonc3c12` (stereo not drawn) [Example 4.124, 1′-(pyridin-2-ylmethyl)spiro[furo[3,2-e][2,1,3]benzoxadiazole-8,3′-indol]-2′(1′H)-one], the melting point lay in the range of 180 to 182 °C. The IC50 with sodium channel fell in the range of 1 to 100 nM. Besides, the inhibition at 10 µM on CYP3A4 is < 50%.

Regarding `O=C1N(Cc2cccnc2)c2ccccc2C12COc1ccc3nonc3c12` (stereo not drawn) [Example 4.125, 1-(pyridin-3-ylmethyl)spiro[furo[3,2-e][2,1,3]benzoxadiazole-8,3′-indol]-2′(1′H)-one], the melting point lay within 230 to 232 °C. For the same compound, the IC50 with sodium channel is 1000 to 10000 nM. For the same compound, on CYP3A4, the inhibition at 10 µM was < 50%.

Compound `O=C1N(Cc2ccccn2)c2ccccc2C12COc1c(Cl)cc3c(c12)OCCO3` (stereo not drawn) [Example 4.126, 6-chloro-1′-(pyridin-2-ylmethyl)-2,3-dihydrospiro[furo[3,2-f][1,4]benzodioxine-9,3′-indol]-2′(1′H)-one] displayed a melting point of 197 to 199 °C. The IC50 with sodium channel was in the range of 1000 to 10000 nM. In addition, the inhibition at 10 µM on CYP3A4 was > 50%.

For `O=C1N(C[C@H]2CCCO2)c2ccccc2C12COc1cc3c(cc12)CCCC3` (stereo partly drawn) [Example 4.129, 1-[(2R)-tetrahydrofuran-2-ylmethyl]-5′,6′,7′,8′-tetrahydrospiro[indole-3,3′-naphtho[2,3-b]furan]-2(1′H)-one], the melting point is 139 to 141 °C. Also, in the data set with sodium channel, the IC50 is 1000 to 10000 nM. The inhibition at 10 µM at CYP3A4 was < 50%.

For `O=C1N(Cc2ccccn2)c2ccccc2C12COc1cc3nccnc3cc12` (stereo not drawn) [Example 4.130, 1′-(pyridin-2-ylmethyl)spiro[furo[2,3-g]quinoxaline-8,3′-indol]-2′(1′H)-one], the melting point lay within 232 to 233 °C. Further, the IC50 with sodium channel is 1000 to 10000 nM. Besides, the inhibition at 10 µM on CYP3A4 is < 50%.

Consider `COc1ncc(CN2C(=O)C3(COc4cc5c(cc43)CCO5)c3ccccc32)cn1` (stereo not drawn) [Example 5, 1-[(2-methoxypyrimidin-5-yl)methyl]-5,6-dihydrospiro[benzo[1,2-b:5,4-b′]difuran-3,3′-indol]-2′(1′H)-one], for which the melting point was in the range of 203 to 204 °C. Also, in the data set on sodium channel, the IC50 lay within 100 to 1000 nM. Moreover, on CYP3A4, the inhibition at 10 µM is < 50%.

Take `CC(C)CCN1C(=O)[C@]2(COc3cc4c(cc32)CCO4)c2ccccc21` [Example 5.2, (3R)-1-(3-methylbutyl)-5,6-dihydrospiro[benzo[1,2-b:5,4-b′]difuran-3,3′-indol]-2′(1′H)-one]: the melting point is 86 to 87 °C. Also, the IC50 in the data set on sodium channel fell in the range of 1000 to 10000 nM. For the same compound, the inhibition at 10 µM at CYP3A4 is > 50%.

Compound `CCCCCN1C(=O)[C@]2(COc3cc4c(cc32)CCO4)c2ccccc21` [Example 5.3, (3R)-1′-pentyl-5,6-dihydrospiro[benzo[1,2-b:5,4-b′]difuran-3,3′-indol]-2′(1′H)-one] had a melting point of 128 to 129 °C. Besides, in the data set on sodium channel, the IC50 fell in the range of 1000 to 10000 nM. The inhibition at 10 µM at CYP3A4 is > 50%.

With `Cn1c(=O)oc2cc3c(cc21)OCC31C(=O)N(Cc2ccc(C(F)(F)F)o2)c2ccccc21` (stereo not drawn) [Example 5.8, 3-methyl-1′-{[5-(trifluoromethyl)furan-2-yl]methyl}spiro[furo[2,3-f][1,3]benzoxazole-7,3′-indole]-2,2′(1′H,3H)-dione], the melting point is 198 to 199 °C. Further, the IC50 in the data set on sodium channel fell in the range of 1000 to 10000 nM. Further, the inhibition at 10 µM on CYP3A4 was > 50%.

As to `O=C1N(Cc2cccc(Cl)n2)c2ccccc2C12COc1cc3c(cc12)OCCO3` (stereo not drawn) [Example 5.13, 1′-[(6-chloropyridin-2-yl)methyl]-2,3-dihydrospiro[furo[2,3-g][1,4]benzodioxine-8,3′-indol]-2′(1′H)-one], the melting point fell in the range of 181 to 182 °C. Further, the IC50 in the data set with sodium channel fell in the range of 1 to 100 nM. The inhibition at 10 µM on CYP3A4 was > 50%.

In the case of `COc1ccc(CN2C(=O)C3(COc4cc5c(cc43)OCCO5)c3ccccc32)cn1` (stereo not drawn) [Example 5.15, 1′-[(6-methoxypyridin-3-yl)methyl]-2,3-dihydrospiro[furo[2,3-g][1,4]-benzodioxine-8,3′-indol]-2′(1′H)-one], the melting point is 161 to 162 °C. Also, the IC50 in the data set with sodium channel was 1 to 100 nM. Also, the inhibition at 10 µM on CYP3A4 was < 50%.

`O=C1N(Cc2cnccn2)c2ccccc2[C@]12COc1cc3c(cc12)OCCO3` [Example 5.16, (8S)-1′-(pyrazin-2-ylmethyl)-2,3-dihydrospiro[furo[2,3-g][1,4]benzodioxine-8,3′-indol]-2′(1′H)-one] gave a melting point of 216 to 218 °C. Also, the IC50 in the data set with sodium channel fell in the range of 1 to 100 nM. Besides, on CYP3A4, the inhibition at 10 µM was < 50%.

Regarding `CN1C(=O)C2(C(=O)N(Cc3ccccn3)c3ccccc32)c2cc3c(cc21)OCCO3` (stereo not drawn) [Example 5.19, 6-methyl-1′-(pyridin-2-ylmethyl)-2,3-dihydrospiro[1,4-dioxino[2,3-f]indole-8,3′-indole]-2′,7(1H,6H)-dione], the melting point is 87 to 89 °C. Besides, the IC50 in the data set on sodium channel lay in the range of 1000 to 10000 nM. In addition, at CYP3A4, the inhibition at 10 µM was < 50%.

`O=C1N(CC2CC2(F)F)c2ccccc2C12COc1cc3c(cc12)OCCO3` (stereo not drawn) [Example 5.21, 1′-[(2,2-difluorocyclopropyl)methyl]-2,3-dihydrospiro[furo[2,3-g][1,4]benzodioxine-8,3′-indol]-2′(1′H)-one]: the melting point fell in the range of 162 to 164 °C. Besides, the IC50 with sodium channel was 1 to 100 nM. Moreover, the inhibition at 10 µM on CYP3A4 was < 50%.
